Data from patent US20090023769A1, “Organic Compounds” (NOVARTIS AG, priority 2006, published 2009).

System: monocrotaline reversal model of pulmonary hypertension
Experiment: monocrotaline reversal model of pulmonary hypertension
Type: in vivo
Settings: 3 mg/kg orally once daily from days 21-42; also dosed at 0.3 and 1 mg/kg
Procedure: The compound of formula II, namely 4-[8-(3-Fluorophenyl)-[1,7]naphthyridin-6-yl]-cyclohexanecarboxylic acid and being a representative example of compounds of formula I, is tested in the monocrotaline reversal model of pulmonary hypertension that is described by Schermuly et al in The Journal of Clinical Investigation 2005 October; 115(10):2811-21. The disclosure of that article is incorporated herein by way of reference.
4-[8-(3-Fluorophenyl)-[1,7]-naphthyridin-6-yl]-cyclohexanecarboxylic acid is dosed orally to the animals once daily from days 21-42 of the experiment at 0.3, 1 and 3 mg/kg.

O=C(O)C1CCC(c2cc3cccnc3c(-c3cccc(F)c3)n2)CC1 (stereo not shown) [4-[8-(3-Fluorophenyl)-[1,7]naphthyridin-6-yl]-cyclohexanecarboxylic acid]
shows efficacy: medial wall thickness | mortality | reversal of RV (right ventricular) pressure | reversal of RV hypertrophy
